Measured values: patent US20230000888A1, “NAD-PRECURSORS AND DIETARY RESTRICTION FOR TREATING AGE RELATED MEDICAL CONDITIONS” (Leibniz-Institut für Alternsforschung - …, priority 2019, published 2023)

Legend:
[1] = system: HSCs (CD150+CD34−Flt3−LSK); assay: Culture of freshly isolated HSCs with metabolic inhibitors, total cell numbers by FACS after 5 days; format: cell-based, mice; conditions: for cell numbers 5 days after initiation of the treatment, HSCs from old mice compared to HSCs from young mice: 2-DG 3 mM, Oligomycin 1.8 nM, 1,500 HSCs per well, FIG. 6C; for cell numbers 5 days after induction of the inhibitor treatment, HSCs from young mice / sensitivity to respond with a reduction in cell growth, HSCs from old mice: inhibitor of mitochondrial nutrient uptake 9 μM, FIG. 6D; for sensitivity to respond with a reduction in cell growth, HSCs from old mice: compared to young
Method: (C-E) One-thousand-five-hundred, freshly isolated HSCs (CD150^+CD34^−Flt3^−LSK) from young or old mice were cultured per well (96-well plate). (C) HSCs were exposed to 2-DG (3 mM), Oligomycin (=Oligo, 1.8 nM), or DMSO as control (=Con). Total cell numbers per well were determined by FACS after 5 days. Young mice (4 months, n=4) and old mice (24 months, n=6). Data are normally distributed (Shapiro-Wilk test). P-values were calculated by t-test with Welch's correction. Error bars depict SD. (D) HSCs were cultured with inhibitors that block the mitochondrial uptake of […] (BPTES, 9 μM), fatty acids (Etomoxir, 9 μM), or pyruvate (UK5099, 9 μM). Total cell numbers were counted by FACS after 5 days. Young mice (3-4 months, n=5) and old mice (26 months, n=4). Data are normally distributed (Shapiro-Wilk test). P-values were calculated by unpaired t-test with Welch's correction. (E) HSCs were exposed to a combination of 3 inhibitors (3 inhibitors=3I, same as in D) at a concentration of 6 μM (each) or to DMSO (Con). Young mice (2-3 months, n=5) and old mice (30-31 months, n=5). Data are normally distributed (Shapiro-Wilk test). P-values were calculated using 2-way ANOVA with Tukey's multiple comparisons test. Error bars depict SD.
To test the functional relevance of these aging-associated changes in the proteome of HSCs, freshly isolated HSCs were exposed to treatment with oligomycin (an inhibitor of mitochondrial oxidative phosphorylation) or to treatment with 2-Deoxy-D-glucose (2-DG) in culture. […] Similar results were obtained after inhibition of nutrient influx into mitochondria. In this experiment, freshly isolated HSCs were incubated with compounds that inhibit the influx of nutrients into mitochondria (BPTES for glutamine, Etomoxir for fatty acids, or UK5099 for pyruvate).
For testing the response of HSPCs to the blocking of glycolysis or mitochondrial ATP synthesis, 2-DG (Sigma, D8375) or oligomycin A (Sigma, 75351) were used. For the inhibition of nutrient uptake into mitochondria, three inhibitors (3I) were used. BPTES (Sigma, SML0601) blocks […] uptake, Etomoxir (Sigma E1905) blocks Fatty acids uptake, and UK5099 (Sigma PZ0160) blocks pyruvate uptake. The final concentration of each inhibitor in the culture medium is 6 μM. Same amount of DMSO was used in the medium as control. For determination of cell number after NR treatment 500 HSCs from young (2-3 months) and old (22-24 months) were pre-incubated either with 1 mM NR (provided by Prof. Johan Auwerx Lab) or DMSO as control for 2 days followed by 2 days treatment with the inhibitors (BPTES, Etomoxir and UK5099, 6 μM each) or same amount of DMSO as control. The cells were then analyzed by BD LSR fortessa.

[2] = system: HSCs (CD150+CD34−Flt3−LSK); assay: Culture of HSCs from FCCP- or vehicle-treated mice with 3I-treatment, total cell numbers; format: cell-based; conditions: HSCs from high-dose FCCP-treated young mice; FIG. 6G
Method: (F,G) Young, 3-4 month old mice were treated within one week with two intraperitoneal injections of FCCP on day-1 and day-4 (high-dose: 4.8 mg/Kg or low-dose: 1.2 mg/Kg) or with vehicle control (10% DMSO) (n=4 mice per group). One week after the start of the treatment (day-7), total bone marrow cells were analyzed and used for culture experiments. […] (G) 2,500 freshly isolated HSCs from vehicle-treated of high-dose FCCP-treated animals were cultured and exposed to 3I-treatment (same concentration as in FIG. 6E) or to vehicle-treatment (Con). The histogram depicts the total cell numbers at 4 days after culture initiation. (F,G) Data are normally distributed (Shapiro-Wilk test) and p-values were calculated using one-way ANOVA (F) and two-way ANOVA (G) with Tukey's multiple comparisons test. Error bars depict SD.
(§2) To experimentally test whether mitochondrial dysfunction would cause an abrogation of adaptive responses of HSCs to reduction in nutrient availability, young mice were exposed the mitochondrial uncoupler FCCP or vehicle (two injections: day-1 and day-4). One week after the first injection, the mice were analyzed and freshly isolated HSCs of FCCP-treated vs. DMSO-treated mice were exposed in culture to the 3 above described inhibitors of mitochondrial nutrient uptake—a combination of BPTES, Etomoxir, and UK5099, referred to from here on as “3I”.

[3] = system: HSCs (CD150+CD34−Flt3−LSK); conditions: young mice, two i.p. injections (day-1, day-4), 1.2 or 4.8 mg/Kg, 1 week; FIG. 6F
Method: (F,G) Young, 3-4 month old mice were treated within one week with two intraperitoneal injections of FCCP on day-1 and day-4 (high-dose: 4.8 mg/Kg or low-dose: 1.2 mg/Kg) or with vehicle control (10% DMSO) (n=4 mice per group). One week after the start of the treatment (day-7), total bone marrow cells were analyzed and used for culture experiments. […] (F,G) Data are normally distributed (Shapiro-Wilk test) and p-values were calculated using one-way ANOVA (F) and two-way ANOVA (G) with Tukey's multiple comparisons test. Error bars depict SD.
as §2
Young C57BL/6 wild type mice (3 months) male mice were weighed before the injection. […]

CMPs = conditions: FIG. 8H
Method: (H) Young, 3-4-month old mice were treated one week with two intraperitoneal injections of FCCP/week (high-dose: 4.8 mg/Kg or low-dose: 1.2 mg/Kg) or with vehicle control (10% DMSO) (n=4 mice per group). One week after the start of the treatment, CMPs were freshly isolated and exposed for 12h in culture to a combination of 3 inhibitors of mitochondrial nutrient uptake (31: 6 μM of each BPTES, Etomoxir, and UK5099) or DMSO control (Con). Statistical analysis: The data were normally distributed (Shapiro-Wilk) and p-values were calculated by 2-way ANOVA with Tukey's multiple comparisons test. Error bars depict SD.
To experimentally test this conclusion, CMPs from FCCP-treated vs. control treated young mice (see above) were exposed for 12 hours to 3I-treatment in culture and adaptive response in OCR were measured by Seahorse.
Young C57BL/6 wild type mice (3 months) male mice were weighed before the injection. The mice were then injected intraperitoneally with low dose (1.2 mg/Kg), high dose (4.82 mg/Kg) of FCCP, or 10% DMSO as control (all drugs were dissolved in 10% DMSO. The drug concentration was adjusted so that the final volume of injection of each injection is 150 pL/mouse. The mice were injected at day 1 and day 4 after weighing. Then they were analyzed at day 6. […]

[4] = system: Ldha, Pdha, Nrf1 and Hif1a mRNA in HSCs; assay: qPCR of Ldha, Pdha, Nrf1, Hif1a in HSCs after oligomycin-treatment; format: cell-based, mice; conditions: oligomycin 0.6 μM, 3 hours
Method: FIG. 8. (A,B) Freshly isolated HSCs (CD150^+CD34^−Flt3^−LSK) from young mice (2-3 months, n=4) and old mice (27-30 months, n=6) were exposed to oligomycin-treatment (0.6 μM) or vehicle control (0.1% DMSO) for 3 hours in culture (7000 HSCs per well of a 96-well plate). Gene expressions (relative to β-actin) of (A) Ldha, (B) Pdha were analyzed by qPCR. […] P-values were calculated on transformed data by unpaired t-test with Welch's correction. Error bars depict SD.
(E,F) The same HSC cultures that were described in FIG. 8A were used to determine the mRNA expression levels of (E) Nrf1 and (F) Hif1a relative to β-actin by qPCR. N=4 for young groups, n=6 for old groups. One outlier (Grubbs test) was removed for the control groups). […] Error bars depict SD.
(§1) To further test this hypothesis, we analyzed the adaptability of mitochondrial metabolic pathways in freshly isolated HSPCs from young and old mice. First, we exposed freshly isolated HSCs to Oligomycin or to control treatment and we analyzed the RNA expression of Lactate dehydrogenase A (Ldha) and Pyruvate dehydrogenase A (Pdha) 3 hours after isolation and drug treatment. […] Second, we measured the activity of LDH and PDH in freshly isolated HSCs that were exposed for 20 hours to Oligomycin. […] Again HSCs from old mice were irresponsive (FIG. 8C,D). […] Third, we analyzed OCR in freshly isolated CMPs that were treated for 12 hours with inhibitors of mitochondrial nutrient flow (3I) compared to control treatment. As outlined above, CMPs were used for these respirometry experiments, which need higher cell numbers and thus cannot be conducted on HSCs. […] This increase in OCR in young compared to old CMPs was different from freshly isolated MPs (FIG. 3D) likely due to culture induced activation of OCR in young CMPs, which was impaired in old CMPs by pre-existing, chronic mitochondrial dysfunction.

[5] = system: LDH and PDH activity in HSCs; assay: Activity of LDH and PDH in cultured HSCs after oligomycin-treatment; format: cell-based, mice; conditions: oligomycin 2.4 nM, 20 hours
Method: (C,D) Freshly isolated HSCs (CD150^+CD34^−Flt3^−LSK) from young mice (3-4 months, n=7) and old mice (24-25 months, n=7) were cultured overnight (7,000 HSCs per well of a 96-well plate). Eighteen hours later, HSCs were exposed to oligomycin-treatment (2.4 nM) or vehicle control (0.04% DMSO). After 20h treatment, 1,000 cells from the cultures were isolated by FACS to analyze the activity of (C) LDH and (D) PDH. The histograms depict the data scaled to the average of young, control-treated HSCs set to 1. Data are normally distributed (Shapiro-Wilk test). P-values were calculated by two-way ANOVA with Tukey's multiple comparison tests. Error bars depict SD.
as §1

O=CC[C@@H](O)[C@H](O)[C@H](O)CO [2-DG, 2-Deoxy-D-glucose]
cell numbers 5 days after initiation of the treatment, HSCs from old mice compared to HSCs from young mice [1]: stronger reduction in cell numbers

O=C(Cc1ccccc1)Nc1nnc(CCSCCc2nnc(NC(=O)Cc3ccccc3)s2)s1 [BPTES]
cell numbers 5 days after induction of the inhibitor treatment, HSCs from young mice [1]: strong reduction in cell numbers
sensitivity to respond with a reduction in cell growth, HSCs from old mice [1]: significantly reduced

CCOC(=O)[C@@]1(CCCCCCOc2ccc(Cl)cc2)CO1 [Etomoxir]
cell numbers 5 days after induction of the inhibitor treatment, HSCs from young mice [1]: strong reduction in cell numbers
sensitivity to respond with a reduction in cell growth, HSCs from old mice [1]: significantly reduced

N#CC(C#N)=NNc1ccc(OC(F)(F)F)cc1 [FCCP]
response of HSCs to 3I-treatment by reduction in cell expansion [2]: complete abrogation in responding to 3I-treatment
number of phenotypic HSCs in bone marrow [3]: dose dependent increase in the number of phenotypic HSCs in bone marrow
responsiveness of CMPs to reduce OCRs in response to 3I-treatment in culture (CMPs; CMPs from FCCP-treated young mice, 3I 6 μM each, 12 h): dose dependent loss in the responsiveness
OCR of freshly isolated CMPs (CMPs; in vivo pre-treatment of young mice with FCCP 1.2 or 4.8 mg/Kg): dose dependent reduction in the OCR

N#C/C(=C\c1cn(-c2ccccc2)c2ccccc12)C(=O)O [UK5099]
cell numbers 5 days after induction of the inhibitor treatment, HSCs from young mice [1]: strong reduction in cell numbers
sensitivity to respond with a reduction in cell growth, HSCs from old mice [1]: significantly reduced

CC[C@H]1/C=C/C=C/C[C@@H](C)[C@H](O)[C@@](C)(O)C(=O)[C@@H](C)[C@H](O)[C@@H](C)C(=O)[C@@H](C)[C@H](O)[C@@H](C)/C=C/C(=O)O[C@@H]2[C@H](C)[C@H](CC1)O[C@]1(CC[C@H](C)[C@H](C[C@@H](C)O)O1)[C@H]2C [oligomycin, oligomycin A]
cell numbers 5 days after initiation of the treatment, HSCs from old mice compared to HSCs from young mice [1]: less responsive to reduce cell growth
Ldha and Pdha RNA expression ([4]; HSCs from old mice, FIG. 8A,B): irresponsive
Ldha RNA expression ([4]; HSCs from young mice, FIG. 8A): significant suppression of Ldha expression
Pdha RNA expression ([4]; HSCs from young mice, FIG. 8B): concomitant increase in Pdha expression
LDH and PDH activity ([5]; HSCs from old mice, FIG. 8C,D): irresponsive
LDH activity ([5]; HSCs from young mice, FIG. 8C): reduction in LDH activity
PDH activity ([5]; HSCs from young mice, FIG. 8D): PDH activity was maintained
